According to ChEMBL document CHEMBL6109155, “Discovery of Phenylacylpiperidine as Novel sEH Inhibitors through Scaffold Hopping of Natural Stilbene” (J Med Chem, 2025):
Calls of active or inactive are those of the source. The calls are words filed in the database; no cut-off is given here.

What was measured:
[1] = Ratio of AUC (0 to 24 hrs) in brain to plasma in C57BL/6J mouse at 20 mg/kg, po measured for 24 hrs; type: ADME, organism-based; settings: brain and plasma, read-out: Ratio AUC
[2] = Half life in Sprague-Dawley rat at 20 mg/kg, po measured for 24 hrs; type: ADME, organism-based; settings: in vivo
Mus musculus [3] = experiment: Anti-inflammatory activity in BALB/c mouse model of carrageenan-induced paw edema assessed as increase in ratio of 11,12-EET to DHET plasma levels at 10 mg/kg, po measured after 6 hrs relative to control; type: functional
Rattus norvegicus [4] = experiment: Anti-inflammatory activity in Sprague-Dawley rat model of CFA-induced rheumatoid arthritis assessed as smooth cartilage surface at 10 mg/kg, po administered daily measured after 19 days by H and E staining based analysis; type: functional, organism-based; settings: time 19.0 day
Rattus norvegicus [5] = experiment: Anti-inflammatory activity in Sprague-Dawley rat model of CFA-induced rheumatoid arthritis assessed as decrease in paw swelling at 10 mg/kg, po administered daily measured after 7 days; type: functional, organism-based; settings: time 7.0 day
Mus musculus [6] = experiment: Anti-inflammatory activity in BALB/c mouse model of carrageenan-induced paw edema assessed as increase in ratio of 14,15-EET to DHET plasma levels at 10 mg/kg, po measured after 6 hrs relative to control; type: functional
[7] = AUC (0 to 24 hrs) in brain of C57BL/6J mouse at 20 mg/kg, po measured for 24 hrs; type: ADME, organism-based
[8] = Ratio of AUC (0 to 24 hrs) in liver to plasma in C57BL/6J mouse at 20 mg/kg, po measured for 24 hrs; type: ADME, organism-based; settings: liver and plasma, read-out: Ratio AUC
[9] = In vivo inhibition of liver sEH enzyme activity in Sprague-Dawley rat model of CFA-induced rheumatoid arthritis at 10 mg/kg, po administered daily measured after 19 days relative to control; type: functional; settings: 456 h, time 19 day
[10] = Tmax in Sprague-Dawley rat at 5 mg/kg, iv measured for 24 hrs; type: ADME, organism-based; settings: in vivo
[11] = Cmax in Sprague-Dawley rat at 20 mg/kg, po measured for 24 hrs; type: ADME, organism-based; settings: in vivo
Rattus norvegicus [12] = experiment: Anti-inflammatory activity in Sprague-Dawley rat model of CFA-induced rheumatoid arthritis assessed as BS/BV value at 10 mg/kg, po administered daily measured after 19 days by micro-CT analysis (reference value: 17.147 %); type: functional; settings: time 19 day
hERG = hERG (Homo sapiens, UniProt Q12809); experiment: Inhibition of hERG at 10 uM by whole-cell patch-clamp method relative to control; type: toxicity
hERG, sequence (Q12809 whole entry): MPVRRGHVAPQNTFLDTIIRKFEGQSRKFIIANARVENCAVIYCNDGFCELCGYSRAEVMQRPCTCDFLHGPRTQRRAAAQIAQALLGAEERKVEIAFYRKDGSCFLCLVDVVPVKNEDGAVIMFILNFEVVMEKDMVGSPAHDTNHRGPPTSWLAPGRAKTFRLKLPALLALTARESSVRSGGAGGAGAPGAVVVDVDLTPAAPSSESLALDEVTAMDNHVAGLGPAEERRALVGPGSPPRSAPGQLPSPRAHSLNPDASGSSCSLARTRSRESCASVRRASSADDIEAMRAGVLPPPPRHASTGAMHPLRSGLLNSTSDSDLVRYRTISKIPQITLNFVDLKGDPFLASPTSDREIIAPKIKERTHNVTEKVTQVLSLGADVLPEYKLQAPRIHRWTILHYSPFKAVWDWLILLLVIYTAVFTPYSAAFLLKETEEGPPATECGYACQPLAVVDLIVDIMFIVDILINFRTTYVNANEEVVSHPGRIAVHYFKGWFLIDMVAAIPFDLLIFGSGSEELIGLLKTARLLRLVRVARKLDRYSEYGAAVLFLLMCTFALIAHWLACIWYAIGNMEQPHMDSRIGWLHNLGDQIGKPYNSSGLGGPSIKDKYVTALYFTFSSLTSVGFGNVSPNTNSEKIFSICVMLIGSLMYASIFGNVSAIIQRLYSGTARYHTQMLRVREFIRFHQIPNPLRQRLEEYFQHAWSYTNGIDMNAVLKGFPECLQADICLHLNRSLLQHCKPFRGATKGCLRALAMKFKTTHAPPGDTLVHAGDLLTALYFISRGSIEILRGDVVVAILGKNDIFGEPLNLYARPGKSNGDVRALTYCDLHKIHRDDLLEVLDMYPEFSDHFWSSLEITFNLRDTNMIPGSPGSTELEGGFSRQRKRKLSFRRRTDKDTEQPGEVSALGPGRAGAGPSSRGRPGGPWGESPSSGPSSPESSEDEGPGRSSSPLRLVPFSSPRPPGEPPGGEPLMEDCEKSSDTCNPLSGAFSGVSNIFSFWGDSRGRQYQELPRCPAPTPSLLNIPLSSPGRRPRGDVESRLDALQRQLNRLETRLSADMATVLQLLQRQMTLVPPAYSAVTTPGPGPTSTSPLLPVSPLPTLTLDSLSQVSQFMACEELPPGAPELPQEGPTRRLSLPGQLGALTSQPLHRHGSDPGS

Mus musculus [13] = experiment: Anti-inflammatory activity in BALB/c mouse model of carrageenan-induced paw edema assessed as inhibition of paw swelling at 20 mg/kg, po measured for 0.5 hrs relative to control; type: functional; settings: Mus musculus, BALB/c
Mus musculus [14] = experiment: Anti-inflammatory activity in CD-1 mouse model of cerulein-induced acute pancreatitis assessed as decrease in inflammatory response in pancreas at 10 mg/kg, ip drug administered at 30 mins and 2.5 hrs post-first cerulein injection and measured after 6 hrs post-first cerulein injection by H and E staining based analysis; type: functional, organism-based; settings: time 3.5-5.5 hrs
[15] = Oral bioavailability in Sprague-Dawley rat at 20 mg/kg measured for 24 hrs; type: ADME, organism-based; settings: in vivo
Mus musculus [16] = experiment: Anti-inflammatory activity in BALB/c mouse model of carrageenan-induced paw edema assessed as inhibition of paw swelling at 20 mg/kg, po measured after 6 hrs relative to control; type: functional
Rattus norvegicus [17] = experiment: Anti-inflammatory activity in Sprague-Dawley rat model of CFA-induced rheumatoid arthritis assessed as TV value at 10 mg/kg, po administered daily measured after 19 days by micro-CT analysis (reference value: 92.617 mm3); type: functional; settings: time 19 day
Rattus norvegicus [18] = experiment: Anti-inflammatory activity in Sprague-Dawley rat model of CFA-induced rheumatoid arthritis assessed as decrease in swelling degree of right paw at 10 mg/kg, po administered daily measured after 4 days; type: functional, organism-based; settings: time 4.0 day
Mus musculus [19] = experiment: (§1) Anti-inflammatory activity in CD-1 mouse model of cerulein-induced acute pancreatitis assessed as increase in ratio of plasma 14,15-EET/DHET level at 10 mg/kg, ip drug administered at 30 mins and 2.5 hrs post-first cerulein injection and measured after 6 hrs post-first cerulein injection (reference value: 69.8 to 77.3 %); type: functional; settings: time 3.5-5.5 hrs
Rattus norvegicus [20] = experiment: Anti-inflammatory activity in Sprague-Dawley rat model of CFA-induced rheumatoid arthritis assessed as BS value at 10 mg/kg, po administered daily measured after 19 days by micro-CT analysis (reference value: 636.014 mm2); type: functional; settings: time 19 day
[21] = AUC (0 to 24 hrs) in liver of C57BL/6J mouse at 20 mg/kg, po measured for 24 hrs; type: ADME, organism-based
Mus musculus [22] = experiment: Anti-inflammatory activity in BALB/c mouse model of carrageenan-induced paw edema assessed as inhibition of paw swelling at 20 mg/kg, po measured up to 6 hrs relative to control; type: functional
Rattus norvegicus [23] = experiment: Anti-inflammatory activity in Sprague-Dawley rat model of CFA-induced rheumatoid arthritis assessed as […] in connective tissue proliferation in synovial tissue at 10 mg/kg, po administered daily measured after 19 days by H and E staining based analysis; type: functional, organism-based; settings: time 19.0 day
[24] = In vivo inhibition of pancreatic sEH in CD-1 mouse model of cerulein-induced acute pancreatitis 10 mg/kg, ip drug administered at 30 mins and 2.5 hrs post-first cerulein injection and measured after 6 hrs post-first cerulein injection; type: functional; settings: time 3.5-5.5 hrs
Mus musculus [25] = experiment: Anti-inflammatory activity in BALB/c mouse model of carrageenan-induced paw edema assessed as increase in plasma 11,12-EET levels at 10 mg/kg, po measured after 6 hrs relative to control; type: functional
Rattus norvegicus [26] = experiment: Anti-inflammatory activity in Sprague-Dawley rat model of CFA-induced rheumatoid arthritis assessed as increase in ratio of plasma 11,12-EET to DHET levels at 10 mg/kg, po administered daily measured after 19 days relative to control; type: functional; settings: time 19 day
[27] = Cmax in kidney of C57BL/6J mouse at 20 mg/kg, po measured for 24 hrs; type: ADME, organism-based
Rattus norvegicus [28] = experiment: Anti-inflammatory activity in Sprague-Dawley rat model of CFA-induced rheumatoid arthritis assessed as decrease in paw redness at 10 mg/kg, po administered daily measured after 7 days; type: functional, organism-based; settings: time 7.0 day
Rattus norvegicus [29] = experiment: Anti-inflammatory activity in Sprague-Dawley rat model of CFA-induced rheumatoid arthritis assessed as increase in ratio of plasma 8,9-EET to DHET levels at 10 mg/kg, po administered daily measured after 19 days relative to control; type: functional; settings: time 19 day
[30] = Ratio of Cmax in kidney to plasma in C57BL/6J mouse at 20 mg/kg, po measured for 24 hrs; type: ADME, organism-based; settings: kidney and plasma
Mus musculus [31] = experiment: as §1, with “11,12-EET/DHET” for “14,15-EET/DHET”; type: functional; settings: time 3.5-5.5 hrs
Rattus norvegicus [32] = experiment: Anti-inflammatory activity in Sprague-Dawley rat model of CFA-induced rheumatoid arthritis assessed as increase in plasma 14,15-EET level at 10 mg/kg, po administered daily measured after 19 days relative to control; type: functional; settings: time 19 day
Cytochrome P450 2D6 = Cytochrome P450 2D6 (Homo sapiens, UniProt P10635); experiment: Inhibition of CYP2D6 in human liver microsomes preincubated for 10 mins followed by NADPH addition measured after 3.5 mins by LC-MS/MS analysis; type: ADME, Microsome
Cytochrome P450 2D6, sequence (P10635 whole entry): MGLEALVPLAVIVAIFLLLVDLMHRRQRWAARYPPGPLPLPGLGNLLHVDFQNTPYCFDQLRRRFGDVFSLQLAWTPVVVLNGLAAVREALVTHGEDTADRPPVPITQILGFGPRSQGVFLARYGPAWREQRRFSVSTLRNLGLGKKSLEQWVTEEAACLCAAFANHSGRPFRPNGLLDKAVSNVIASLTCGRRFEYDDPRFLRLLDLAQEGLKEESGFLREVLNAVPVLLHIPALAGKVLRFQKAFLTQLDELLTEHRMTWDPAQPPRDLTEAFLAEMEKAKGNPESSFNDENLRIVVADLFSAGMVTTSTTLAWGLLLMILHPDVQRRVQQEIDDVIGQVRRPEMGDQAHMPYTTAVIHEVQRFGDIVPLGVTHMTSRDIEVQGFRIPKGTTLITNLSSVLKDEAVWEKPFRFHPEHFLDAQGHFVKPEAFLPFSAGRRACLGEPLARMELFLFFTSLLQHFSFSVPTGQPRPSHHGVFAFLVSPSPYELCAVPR

COc1cc(CC(=O)N2CCC(NC(=O)NCc3ccc(OC(F)(F)F)cc3)CC2)cc(OC)c1
Kp at 24 h [1]: 0.02
half-life [2]: 113 min
Activity (Mus musculus [3]): 362%
Activity (Rattus norvegicus [4]): Active
Activity (Rattus norvegicus [5]): Active
Activity (Mus musculus [6]): 677%
AUC(0-t) at 24 h [7]: 11 ng·h/mL
Kp at 24 h [8]: 50.9
inhibition in vivo at 10 mg/kg [9]: 24.7%
Tmax [10]: 4.8 min
Cmax [11]: 359 ng/mL
Activity (Rattus norvegicus [12]): 11.923%
inhibition at 10 µM (hERG): 12.5%
inhibition in vivo at 20 mg/kg (Mus musculus [13]): 29.5%
Activity (Mus musculus [14]): Active
bioavailability [15]: 8.3%
inhibition in vivo at 20 mg/kg (Mus musculus [16]): 38.1%
Activity (Rattus norvegicus [17]): 57.762 mm3
Activity (Rattus norvegicus [18]): Active
Activity (Mus musculus [19]): 905%
Activity (Rattus norvegicus [20]): 432.009 mm2
AUC(0-t) at 24 h [21]: 27100 ng·h/mL
inhibition in vivo at 20 mg/kg (Mus musculus [22]): 44.6%
Activity (Rattus norvegicus [23]): Active; Minimal Connective Tissue Proliferation Was Observed
inhibition in vivo at 10 mg/kg [24]: 44.7%
Activity (Mus musculus [25]): 85.4%
Activity (Rattus norvegicus [26]): 111%
Cmax [27]: 4540 ng/g
Activity (Rattus norvegicus [28]): Active
Activity (Rattus norvegicus [29]): 203%
Kp at 24 h [30]: 9.43
Activity (Mus musculus [31]): 552%
Activity (Rattus norvegicus [32]): 175%
IC50 (Cytochrome P450 2D6): 46.8 µM
